# Legend:
# [1] = test system: Schistosoma mansoni 21-day-old schistosomules; test: Effect on 21-day-old schistosomules in infected mice; format: in vivo; details: for % reduction of schistosomule growth at day 21 after per os application of 200 mg/kg, FWR (%): female worm reduction rate
# Description: Mice were infected with 100 Schistosoma mansoni cercariae on day 21 post-treatment. Each group was treated per os with trioxolanes at a single dose of 200 mg/kg. […] All groups were killed 4 weeks after treatment and the liver and intestine were removed and separated. The liver and intestine were compressed and alive male and female worms could be seen and counted. The effect of the compounds was evaluated by mean total and female worm burden.
# [2] = test system: Schistosoma mansoni adult worms (49-day-old); test: Effect on adult schistosomes (49-day-old) in infected mice; format: in vivo; details: for % reduction of adult worms growth at day 49 after per os application of 400 mg/kg, TWR (%) / Adult worms day 49, per os 400 mg/kg, DEAD WORM (%): single 400 mg/kg per os
# Description: Mice were infected with 100 Schistosoma mansoni cercariae on day 49 post-treatment. Each group was treated per os with OZ compounds at single doses of 200, 400, and 600 mg/kg. Untreated mice served as the control. All groups were killed 4 weeks after treatment and the liver and intestine were removed and separated. The liver and intestine were compressed and alive male and female worms could be seen and counted.
# [3] = test system: ANKA strain of P. berghei; test: Single dose STI in vivo screen in infected mice; parameters: species or system Plasmodium berghei; details: for Survival (days) 10 mg/kg po: single 10 mg/kg po in 3% ethanol and 7% Tween 80; for Survival (days) 10 mg/kg po / Survival (days) 10 mg/kg SSV po / Survival (days) 10 mg/kg sc: untreated 6-7 days; for Activity (%) 10 mg/kg po: single 10 mg/kg po in 3% ethanol and 7% Tween 80 on day 1 post-infection; for Activity (%) 10 mg/kg po / Activity (%) 10 mg/kg SSV po / Activity (%) 10 mg/kg sc: percent reduction in parasitemia on day 3; for Survival (days) 10 mg/kg SSV po: single 10 mg/kg po in SSV; for Activity (%) 10 mg/kg SSV po: single 10 mg/kg po in standard suspending vehicle (SSV) on day 1 post-infection; for Survival (days) 10 mg/kg sc: single 10 mg/kg sc in 3% ethanol and 7% Tween 80; for Activity (%) 10 mg/kg sc: single 10 mg/kg sc in 3% ethanol and 7% Tween 80 on day 1 post-infection
# [4] = test system: ANKA strain of Plasmodium berghei; test: Single dose ED50/ED90/ED99 determination in infected mice; format: in vivo; details: single dose po in SSV on day 1 post-infection, parasitemia day 3, nonlinear fitting
# Description: In the single dose ED50/ED98/ED99 determinations, Moro SPF or NMRI mice (group of three) infected with the ANKA strain of Plasmodium berghei were treated on day one post-infection. […] The SSV consists of 0.5% w/v CMC, 0.5% v/v benzyl alcohol, 0.4% v/v Tween 80, and 0.9% w/v sodium chloride in water. Antimalarial activity was measured by percent reduction in parasitemia on day three post-infection. The ED50/ED90 values were calculated by nonlinear fitting.
# The ED50, ED90, and ED99 values were calculated by non-linear fitting with statistical program and were expressed in mg/kg.
# [5] = test system: chloroquine-resistant K1 strain of P. falciparum; test: In vitro antimalarial semiautomated microdilution assay ([3H]-hypoxanthine incorporation), K1 strain; format: cell-based, Plasmodium falciparum; details: Plasmodium falciparum, K1, 72 h, read-out: IC50 (ng/ml) K1, chloroquine-resistant K1 strain, 72 h incubation
# Procedure, shortened: (§1)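 Semiautomated microdilution against intraerythrocytic P. falciparum from asynchronous stock cultures, with growth tracked by [3H]-hypoxanthine incorporation. IC50 values were estimated by Logit regression analysis.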
# [6] = test system: chloroquine-sensitive NF54 strain of P. falciparum; test: In vitro antimalarial semiautomated microdilution assay ([3H]-hypoxanthine incorporation), NF54 strain; format: cell-based, Plasmodium falciparum; details: Plasmodium falciparum, NF54, 72 h, read-out: IC50 (ng/ml) NF54, chloroquine-sensitive NF54 strain, 72 h incubation
# Procedure, shortened: as §1
# [7] = single 200 mg/kg per os, 21-day-old schistosomules
# [8] = single 200 mg/kg per os, 21-day-old schistosomules, total worm reduction rate
# [9] = 49-day-old adults, total worm reduction rate
# [10] = percentage of dead worm in the liver
SMILES,"% reduction of schistosomule growth at day 21 after per os application of 200 mg/kg, FWR (%) [1, 7] [%]","% reduction of schistosomule growth at day 21 after per os application of 200 mg/kg, TWR (%) [1, 8] [%]","% reduction of adult worms growth at day 49 after per os application of 400 mg/kg, TWR (%) [2, 9] [%]","Adult worms day 49, per os 400 mg/kg, DEAD WORM (%) [2, 10] [%]",further results
OCCC1CCC2(CC1)OOC1(O2)C2CC3CC(C2)CC1C3 (stereo not shown) [OZ89],81,86,0,17,–
CCOC(=O)N1CCC2(CC1)OOC1(O2)C2CC3CC(C2)CC1C3 (stereo not shown) [OZ23],84,90,0,4,–
O=C(O)C1CCC2(CC1)OOC1(O2)C2CC3CC(C2)CC1C3 (stereo not shown) [OZ71],85,91,0,–,"Adult worms day 49, per os 400 mg/kg, DEAD WORM (%) ([2]; percentage of dead worm in the liver, listed as OZ 71): 16%"
NC[C@H]1CC[C@]2(CC1)OOC1(O2)C2CC3CC(C2)CC1C3 (stereo partly shown) [OZ181],–,–,–,–,"Survival (days) 10 mg/kg po ([3]; 10 mg/kg): 9.0 days; Activity (%) 10 mg/kg po ([3]; 10 mg/kg): 99.98%; Survival (days) 10 mg/kg SSV po ([3]; 10 mg/kg): 10.0 days; Activity (%) 10 mg/kg SSV po ([3]; 10 mg/kg): 99.91%; Survival (days) 10 mg/kg sc ([3]; 10 mg/kg): 11.0 days; Activity (%) 10 mg/kg sc ([3]; 10 mg/kg): 100%; ED50 ([4]; Plasmodium berghei, po): 0.63 mg/kg; ED90 [4]: 1.8 mg/kg; ED99 [4]: 4.0 mg/kg"
"C[C@H]1[C@@H](OCc2ccc(C(=O)O)cc2)O[C@@H]2O[C@@]3(C)CC[C@H]4[C@H](C)CC[C@@H]1[C@@]24OO3 [Artelinate, artelinate, reference compound]",–,–,–,–,ED50 [4]: 4.8 mg/kg; ED90 [4]: 10 mg/kg; ED99 [4]: 18 mg/kg
O=C(c1ccccc1)N1CCC2(CC1)OOC1(O2)C2CC3CC(C2)CC1C3 (stereo not shown) [OZ24],61,65,21,0,–
C1CC2(CCN1)OOC1(O2)C2CC3CC(C2)CC1C3.Cl (stereo not shown) [OZ80],75,79,–,–,"% reduction of adult worms growth at day 49 after per os application of 200 mg/kg, TWR (%) ([2]; single 200 mg/kg per os, 49-day-old adults, total worm reduction rate): 0%; Adult worms day 49, per os 200 mg/kg, DEAD WORM (%) ([2]; single 200 mg/kg per os, percentage of dead worm in the liver): 3%"
O=C1CC2CC3(CC2C1)OOC1(O3)C2CC3CC(C2)CC1C3 (stereo not shown) [OZ12],79,78,14,0,–
O=C1CCC2(CCO1)OOC1(O2)C2CC3CC(C2)CC1C3 (stereo not shown) [OZ17],7,–,0,5,"% reduction of schistosomule growth at day 21 after per os application of 200 mg/kg, TWR (%) ([1]; po, 200 mg/kg, 504 h): 23%"
CC(C)(O)[C@H]1CC[C@]2(CC1)OOC1(O2)C2CC3CC(C2)CC1C3 (stereo partly shown) [OZ108],28,30,28,0,IC50 [5]: 68 ng/mL; IC50 [6]: 29 ng/mL; Survival (days) 10 mg/kg po [3]: 5.0 days; Activity (%) 10 mg/kg po [3]: 0/0/0%; Survival (days) 10 mg/kg SSV po [3]: 5.0 days; Activity (%) 10 mg/kg SSV po [3]: 0/0/0%; Survival (days) 10 mg/kg sc [3]: 5.7 days; Activity (%) 10 mg/kg sc [3]: 0/0/0%
